Counter-ions that a name gives are not always drawn.
Test system: NRG1-ERBB4 signaling
Assay: Nrg1-ERBB4-PIK3R1 split TEV co-culture compound screen of the NIH Clinical Collection
Format: cell-based, human
Conditions: not given

Structure (SMILES) | Z-SCORE
Oc1ccc2c3c1O[C@H]1[C@@H](O)CC[C@@]4(O)[C@@H](C2)N(CC2CCC2)CC[C@]314 [Nalbuphine] | -1.86

Same assay, conditions: NIH Clinical Collection NCC-003 raw data; compounds ranked by Z-score; 'flagged' given instead of a Z-score

Structure (SMILES) | Z-SCORE
CC1=C(C(=O)O)N2C(=O)[C@@H](NC(=O)[C@H](N)c3ccccc3)[C@H]2SC1 [Cephalexin monohydrate] | -1.51
CC(C(=O)O)c1ccc(-c2ccccc2)c(F)c1 (stereo not shown) [Flurbiprofen, reference compound] | -1.64
COC(=O)Nc1nc2cc(C(=O)c3ccc(F)cc3)ccc2[nH]1 [FLUBENDAZOLE] | flagged
Nc1ccn([C@@H]2O[C@H](CO)[C@@H](O)[C@@H]2O)c(=O)n1 | -1.99
CN1CCN(C2=Nc3ccccc3Oc3ccc(Cl)cc32)CC1 [Loxapine succinate] | -1.14
OC[C@H]1O[C@@H](n2cnc3c(NC4CCCC4)nc(Cl)nc32)[C@H](O)[C@@H]1O [CCPA] | -1.19

Same assay, conditions: compound screen of the NIH Clinical Collection, sheet raw data NCC-003; compounds ranked by Z-score

Structure (SMILES) | Z-SCORE
CC1CNc2c(cccc2S(=O)(=O)N[C@@H](CCCNC(=N)N)C(=O)N2CC[C@@H](C)C[C@@H]2C(=O)O)C1 (stereo partly shown) [ARGATROBAN] | -0.29
CC(=O)N1CCN(c2ccc(OCC3COC(Cn4ccnc4)(c4ccc(Cl)cc4Cl)O3)cc2)CC1 (stereo not shown) [Ketoconazole] | -1.1
CCOc1cc(N)c(Cl)cc1C(=O)NCC1CN(Cc2ccc(F)cc2)CCO1 (stereo not shown) [MOSAPRIDE CITRATE] | 0.73
CNC(=O)Oc1ccc2c(c1)[C@]1(C)CCN(C)[C@@H]1N2C [Physostigmine] | 0.16
C[C@]12CCC(=O)C=C1CC[C@@H]1[C@@H]2C(=O)C[C@@]2(C)[C@H]1CC[C@]2(O)C(=O)CO [CORTISONE] | 0.26
CO[C@H]1/C=C/O[C@@]2(C)Oc3c(C)c(O)c4c(O)c(c5c(nc6cc(C)ccn65)c4c3C2=O)NC(=O)/C(C)=C\C=C\[C@H](C)[C@H](O)[C@@H](C)[C@@H](O)[C@@H](C)[C@H](OC(C)=O)[C@@H]1C [RIFAXIMIN] | 0.05
CCCc1c(OCCCCc2nnn[nH]2)ccc(C(C)=O)c1O [LY 171883] | 2.04
CC(C)OC(=O)CCC/C=C\C[C@@H]1[C@@H](CC[C@@H](O)CCc2ccccc2)[C@H](O)C[C@@H]1O [LATANOPROST] | -0.3
Nc1nc(=O)[nH]cc1F [5-FLUOROCYTOSINE] | -0.59
COCC1=C(C(=O)OC(C)OC(=O)OC(C)C)N2C(=O)[C@@H](NC(=O)/C(=N\OC)c3csc(N)n3)[C@H]2SC1 (stereo partly shown) [CEFPODOXIME PROXETIL] | 0.53
CC(C)(C)C(O)/C=C/c1ccc2c(c1)OCO2 (stereo not shown) [Stiripentol] | -0.21
CC(c1cc2ccccc2s1)N(O)C(N)=O (stereo not shown) [ZILEUTON] | 1.28
C[C@H]1CCC[C@H](O)CCCCCc2cc(O)cc(O)c2C(=O)O1 [ZERANOL] | -0.91
O=C(NCCN1CCOCC1)c1ccc(Cl)cc1 | -0.92
O=C1c2cccc3c2[C@H](CCC3)CN1[C@@H]1CN2CCC1CC2 [PALONOSETRON HCl] | 0.77
C[C@]12C[C@H](O)[C@H]3[C@@H](CCC4=CC(=O)CC[C@@]43C)[C@@H]1CC[C@@H]2C(=O)CO [CORTICOSTERONE] | 0.4
CCCCc1oc2ccccc2c1C(=O)c1cc(I)c(OCCN(CC)CC)c(I)c1 [AMIODARONE HYDROCHLORIDE] | -0.19
CCCCC1=NC2(CCCC2)C(=O)N1Cc1ccc(-c2ccccc2-c2nnn[nH]2)cc1 [Irbesartan, reference compound] | 4.26
CCCCN1CCCC1CNC(=O)c1cc(C#N)c2ccccc2c1OC (stereo not shown) [Nafadotride] | -0.24
CCOC(=O)OC(C)OC1=C(C(=O)Nc2ccccn2)N(C)S(=O)(=O)c2ccccc21 (stereo not shown) [AMPIROXICAM] | 0.43
Cc1cccc(C)c1NC(=O)C(C)N (stereo not shown) [TOCAINIDE] | -0.41

Structure (SMILES) | Z-SCORE
CS(=O)(=O)O.O=C(O[C@H]1C[C@H]2CC3C[C@@H](C1)N2CC3=O)c1c[nH]c2ccccc12 [DOLASETRON MESYLATE] | 0.23
CN(C)CC[C@@H](c1ccc(Br)cc1)c1ccccn1 [DEXBROMPHENIRAMINE MALEATE] | -0.74
Cc1ncc([N+](=O)[O-])n1CC(C)O (stereo not shown) | 1.35
Nc1ccn([C@H]2CC[C@@H](CO)O2)c(=O)n1 [2',3'-DIDEOXYCYTIDINE] | 1.38
CC1(C)O[C@@H]2[C@@H](CO[C@@]3(COS(N)(=O)=O)OC(C)(C)O[C@@H]23)O1 [TOPIRAMATE] | 0.63
CNCCCC12CCC(c3ccccc31)c1ccccc12.Cl [Maprotilline HCl] | 1.18
CCC(C)(C)NC(=Nc1cccnc1)NC#N | 0.49
CC(=O)CCCCn1c(=O)c2c(ncn2C)n(C)c1=O [Pentoxifylline] | -0.43
CN1C(C(=O)Nc2ccccn2)=C(O)c2ccccc2S1(=O)=O [Piroxicam] | 0.27
CC(O)CO.N[C@@H](C(=O)N[C@@H]1C(=O)N2C(C(=O)O)=C(CSc3cn[nH]n3)CS[C@H]12)c1ccc(O)cc1 [CEFATRIZINE PROPYLENE GLYCOL] | 0.04
CCN1CCC[C@H]1CNC(=O)c1c(O)c(Cl)cc(Cl)c1OC [Raclopride] | -0.81
CO[C@H]1O[C@@H]2O[C@@]3(C)CC[C@H]4[C@H](C)CC[C@@H]([C@H]1C)[C@@]24OO3 | -1.01
CN(CCOc1ccc(CC2SC(=O)NC2=O)cc1)c1ccccn1 (stereo not shown) [ROSIGLITAZONE MALEATE] | -0.83
CN(C)CC[C@@H](c1ccc(Cl)cc1)c1ccccn1 [DEXCHLORPHENIRAMINE MALEATE] | -0.67
CN1CCN(C2=Nc3cc(F)ccc3Cc3ccccc32)CC1 [Fluperlapine] | -0.5
CC(O)(CS(=O)(=O)c1ccc(F)cc1)C(=O)Nc1ccc(C#N)c(C(F)(F)F)c1 (stereo not shown) [BICALUTAMIDE] | 0
Cl.Nc1c2c(nc3c1CCC3)CCCC2 | -0.08
C#C[C@]1(O)CC[C@H]2[C@@H]3CCC4=CC(=O)CC[C@@H]4[C@H]3CC[C@@]21CC [LEVONORGESTREL] | -1.05
CO[C@H]1/C=C/O[C@@]2(C)Oc3c(C)c(O)c4c(c3C2=O)C2=NC3(CCN(CC(C)C)CC3)NC2=C(NC(=O)/C(C)=C\C=C\[C@H](C)[C@H](O)[C@@H](C)[C@@H](O)[C@@H](C)[C@H](OC(C)=O)[C@@H]1C)C4=O [Rifabutin, reference compound] | 0.07
NC(=NCc1ccc(Cl)cc1)SCCCc1cnc[nH]1 [Clobenpropit] | -0.9
CC#C[C@]1(O)CC[C@H]2[C@@H]3CCC4=CC(=O)CCC4=C3[C@@H](c3ccc(N(C)C)cc3)C[C@@]21C [MIFEPRISTONE] | 0.02

Same assay, conditions: compounds at 10 μM, 24 h; PC12 split TEV assay cells co-cultured with Nrg1-expressing PC12 cells; analysed with cellHTS2

Structure (SMILES) | Z-SCORE
O=c1[nH]cc(F)c(=O)[nH]1 [5-FLUOROURACIL, reference compound] | -1.82
CCN(CC)CC#CCOC(=O)C(O)(c1ccccc1)C1CCCCC1 (stereo not shown) [OXYBUTYNIN CHLORIDE, reference compound] | -0.59
CC(=O)O.NCc1ccc(S(N)(=O)=O)cc1 [4-(AMINOMETHYL)BENZENESULFONAMIDE ACETATE, reference compound] | 0.49
CO[C@@]1(NC(=O)Cc2cccs2)C(=O)N2C(C(=O)O)=C(COC(N)=O)CS[C@@H]21 [CEFOXITIN SODIUM SALT, reference compound] | 2.55
C[C@H]1c2cccc(O)c2C(=O)C2=C(O)[C@]3(O)C(=O)C(C(N)=O)=C(O)[C@@H](N(C)C)[C@@H]3[C@@H](O)[C@@H]21 [DOXYCYCLINE, reference compound] | -0.93
CCC(=O)OCC(=O)[C@@]1(OC(=O)CC)[C@@H](C)C[C@H]2[C@@H]3CCC4=CC(=O)C=C[C@]4(C)[C@@]3(Cl)[C@@H](O)C[C@@]21C [BECLOMETHASONE DIPROPIONATE, reference compound] | 0.81
CNCCC=C1c2ccccc2CCc2ccccc21 [Pamelor, reference compound] | 0.41
CC(C(=O)O)c1ccc(-c2ccccc2)c(F)c1 (stereo not shown) [Flurbiprofen, reference compound] | 0.7
CC1(C)O[C@@H]2C[C@H]3[C@@H]4CCC5=CC(=O)C=C[C@]5(C)[C@@]4(F)[C@@H](O)C[C@]3(C)[C@]2(C(=O)CO)O1 [TRIAMCINOLONE ACETONIDE, reference compound] | -1.51
CCN1CCN(C(=O)N[C@@H](C(=O)N[C@@H]2C(=O)N3[C@@H]2SC(C)(C)[C@@H]3C(=O)O)c2ccccc2)C(=O)C1=O [PIPERACILLIN SODIUM SALT, reference compound] | 0.05
CC1(C)O[C@@H]2C[C@H]3[C@@H]4C[C@H](F)C5=CC(=O)C=C[C@]5(C)[C@H]4[C@@H](O)C[C@]3(C)[C@]2(C(=O)CO)O1 [FluniSOLIDe, reference compound] | 2.03
Cc1ccccc1C(OCCN(C)C)c1ccccc1 (stereo not shown) [Disipal, reference compound] | 0.42
COc1cc(NC(C)CCCN)c2ncccc2c1 (stereo not shown) [Primaquine Diphosphate, reference compound] | -0.7
CCCCC1=NC2(CCCC2)C(=O)N1Cc1ccc(-c2ccccc2-c2nnn[nH]2)cc1 [Irbesartan, reference compound] | 4.26
CC(C[N+](C)(C)C)OC(N)=O (stereo not shown) [Urecholine, reference compound] | -0.94
Clc1ccc(COC(Cn2ccnc2)c2ccc(Cl)cc2Cl)cc1 (stereo not shown) [Econazole Nitrate, reference compound] | -2.43
Cn1cnc([N+](=O)[O-])c1Sc1ncnc2nc[nH]c12 [Azathioprine, reference compound] | 0.16
CCOC(=O)C1=C(C)NC(C)=C(C(=O)OC)C1c1cccc(Cl)c1Cl (stereo not shown) [Felodipine, reference compound] | -1.97
Cc1ccc(S(=O)(=O)NC(=O)NN2CCCCCC2)cc1 [TOLAZAMIDE, reference compound] | 0.3
CCCCC(=O)O[C@H]1CC[C@H]2[C@@H]3CCc4cc(O)ccc4[C@H]3CC[C@]12C [17-BETA-ESTRADIOL 17-VALERATE, reference compound] | -0.44
N[C@@H](Cc1cc(I)c(Oc2cc(I)c(O)c(I)c2)c(I)c1)C(=O)O [L-THYROXINE, reference compound] | -0.07
CC1(C)S[C@@H]2[C@H](NC(=O)[C@H](N)c3ccc(O)cc3)C(=O)N2[C@H]1C(=O)O [AMOXICILLIN CRYSTALLINE, reference compound] | -1.06
CCC1(c2ccccc2)C(=O)NCNC1=O [Primidone, reference compound] | 1.6
CO[C@H]1/C=C/O[C@@]2(C)Oc3c(C)c(O)c4c(c3C2=O)C2=NC3(CCN(CC(C)C)CC3)NC2=C(NC(=O)/C(C)=C\C=C\[C@H](C)[C@H](O)[C@@H](C)[C@@H](O)[C@@H](C)[C@H](OC(C)=O)[C@@H]1C)C4=O [Rifabutin, reference compound] | -1.04

— article PMC5653977 (EMBO Molecular Medicine, 2017)
